Data reported in ChEMBL document CHEMBL1641495, “8-Aza-7,9-dideazaxanthine acyclic nucleoside phosphonate inhibitors of thymidine phosphorylase” (Bioorg Med Chem Lett, 2011).

Experiments:
Thymidine phosphorylase [1] = target: T1, Thymidine phosphorylase (Escherichia coli K-12, UniProt P07650); experiment: Inhibition of [3H]methylthymidine binding to Escherichia coli thymidine phosphorylase after 20 mins by scintillation counting
Thymidine phosphorylase [2] = target: T1, Thymidine phosphorylase; experiment: Inhibition of [3H]methylthymidine binding to Escherichia coli thymidine phosphorylase after 10 mins by scintillation counting
[3] = target: Thymidine phosphorylase (Escherichia coli K-12) (UniProt P07650); experiment: Inhibition of [3H]methylthymidine binding to Escherichia coli thymidine phosphorylase at 100 uM after 20 mins by scintillation counting
[4] = target: Thymidine phosphorylase (Escherichia coli K-12) (UniProt P07650); experiment: Inhibition of [3H]methylthymidine binding to Escherichia coli thymidine phosphorylase at 20 uM after 20 mins by scintillation counting

T1 sequence (P07650 whole entry): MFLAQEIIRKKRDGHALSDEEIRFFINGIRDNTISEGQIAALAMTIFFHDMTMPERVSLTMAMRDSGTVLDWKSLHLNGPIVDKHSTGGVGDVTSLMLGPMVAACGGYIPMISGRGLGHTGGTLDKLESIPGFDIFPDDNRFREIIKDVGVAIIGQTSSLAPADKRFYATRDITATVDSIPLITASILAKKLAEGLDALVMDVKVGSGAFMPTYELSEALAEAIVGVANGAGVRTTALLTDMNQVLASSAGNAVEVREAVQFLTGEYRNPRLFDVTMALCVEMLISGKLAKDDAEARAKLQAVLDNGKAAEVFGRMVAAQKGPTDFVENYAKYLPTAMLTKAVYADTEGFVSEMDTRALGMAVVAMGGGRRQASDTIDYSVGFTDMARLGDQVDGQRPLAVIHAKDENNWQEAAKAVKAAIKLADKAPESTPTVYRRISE
Thymidine phosphorylase (Escherichia coli K-12), sequence (P07650 whole entry, looked up): as the sequence (P07650 whole entry) above

Row | Compound | IC50 (Thymidine phosphorylase [1]) [µM] | IC50 (Thymidine phosphorylase [2]) [µM] | inhibition [3] [%] | inhibition [4] [%]
1 | O=c1[nH]c(=O)n(CCCCCCCCP(=O)(O)O)c2c[nH]cc12 | 6.8 | – | – | –
2 | O=c1[nH]c(=O)n(CCCCCCCCP(=O)(O)O)c2[nH]ccc12 | – | 11.4 | 83 | 48
3 | O=c1[nH]c(=O)c2cn(CCCCCCCCn3cc4[nH]c(=O)[nH]c(=O)c4c3)cc2[nH]1 | 3.5 | – | – | –
4 | O=c1[nH]c(=O)c2cn(CCCCCCCCP(=O)(O)O)cc2[nH]1 | 12 | – | – | –
